According to patent US11530244B2, “Cyclic polypeptides for PCSK9 inhibition” (priority 2018, dated 2022):
pIC50: −log10 of the molar value. Starred links: 1 amine or outer side, 2 acyl side, 3 side chain; linkers in the order of their positions; H or OH if unused. Positions of bridges follow the written chain, without caps; N, C: chain ends. Non-standard residues stand in square brackets, D forms with d. Residues, ends and D or L forms follow the SMILES beside them. Phe(3-CH2NH2) = O=C([C@H](Cc1cccc(CN[*:3])c1)N[*:1])[*:2]; NHCH2(1,3-C6H4)CH2CO = O=C(Cc1cccc(CN[*:1])c1)[*:2]; Trp(5-F) = N[C@@H](Cc1c[nH]c2ccc(F)cc12)C(=O)O; X4 = O=C(CCSCc1cccc(CSCCN[*:1])c1)[*:2]; γGlu = O=C(O)[C@H](CCC(=O)[*:2])N[*:1]; mXylylene = c1cc(C[*:1])cc(C[*:2])c1; AEF = NCCOc1ccc(C[C@H](N)C(=O)O)cc1; NMeY = CN[C@@H](Cc1ccc(O)cc1)C(=O)O; X8 = Clc1cc(C[*:1])cc(C[*:2])c1; αMeP = C[C@@]1(C(=O)O)CCCN1; hSer = N[C@@H](CCO)C(=O)O; X2 = O=C(C[*:2])[*:1]; Mpa = O=C(O)CCS

Columns and labels:
Format in all cases: binding
[1] = target: human PCSK9 / human LDLR EGFa domain interaction (Homo sapiens (Human), UniProt Q8NBP7); test: TR-FRET assay of inhibition of the PCSK9-LDLR protein-protein interaction; details: TR-FRET, 20 nM human PCSK9, 20 nM human LDLR EGFa domain, 2 hours room temperature; read-out: IC50
Summary of the method: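 20 nM biotin-avitag PCSK9 + 20 nM His-LDLR EGFa; 5 nM Ulight-SA / 5 nM Eu-anti-His; 2 h RT; HEPES 50 mM, NaCl 150 mM, CaCl2 5 mM, 0.01% BSA, 0.01% P20. Half-maximal inhibition, 4-parameter fit.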

PCSK9 [2] = target: T1, PCSK9 (Homo sapiens (Human), UniProt Q8NBP7); test: PCSK9 Alexa FRET Standard assay (displacement of AlexaFluor647 tagged cyclic peptide Reagent A); details: PCSK9 Alexa FRET Standard assay, 0.5 nM PCSK9, 20 nM AF cyclic peptide Reagent A; read-out: IC50
Summary of the method: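 TR-FRET displacement: 0.5 nM biotinylated PCSK9 with 1.25 nM Strep-Eu and 20 nM AlexaFluor-tagged cyclic peptide (final) in 50 mM HEPES pH 7.4, 0.15 M NaCl, 5 mM CaCl2, 0.01% BSA, 0.01% P20, ≥2 h at room temperature. IC50 from sigmoidal fit, converted to Ki via peptide KD; falling Eu counts flagged false positives.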

PCSK9 [3] = target: T1, PCSK9; test: PCSK9 Alexa FRET Plus assay (displacement of AlexaFluor647 tagged cyclic peptide Reagent B); details: Alexa FRET Plus, 0.5 nM PCSK9, 960 nM AF cyclic peptide Reagent B; read-out: IC50
Summary of the method: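 TR-FRET displacement with final 0.5 nM biotinylated PCSK9, 1.25 nM Strep-Eu and 960 nM AlexaFluor-tagged cyclic peptide in HEPES pH 7.4, NaCl, CaCl2, BSA, P20; ≥2 h at room temperature. IC50 from sigmoidal fit, converted to Ki using peptide KD. Falling europium counts flagged false positives.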

Sequence of human PCSK9 / human LDLR EGFa domain interaction (Q8NBP7 153-692): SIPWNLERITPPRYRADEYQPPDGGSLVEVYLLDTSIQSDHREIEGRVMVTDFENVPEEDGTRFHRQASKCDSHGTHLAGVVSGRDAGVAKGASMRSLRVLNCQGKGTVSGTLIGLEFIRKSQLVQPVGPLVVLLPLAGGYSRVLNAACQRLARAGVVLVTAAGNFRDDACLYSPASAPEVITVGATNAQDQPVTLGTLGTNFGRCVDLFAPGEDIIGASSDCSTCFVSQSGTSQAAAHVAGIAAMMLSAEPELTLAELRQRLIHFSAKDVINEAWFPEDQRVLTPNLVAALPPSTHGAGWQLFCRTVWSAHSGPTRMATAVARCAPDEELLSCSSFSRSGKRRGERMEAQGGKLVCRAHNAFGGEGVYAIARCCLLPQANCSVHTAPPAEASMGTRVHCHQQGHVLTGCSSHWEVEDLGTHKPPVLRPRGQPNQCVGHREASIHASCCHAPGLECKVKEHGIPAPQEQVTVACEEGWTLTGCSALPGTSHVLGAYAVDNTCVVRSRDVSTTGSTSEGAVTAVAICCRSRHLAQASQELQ
Sequence of human PCSK9 / human LDLR EGFa domain interaction (Q8NBP7 31-152 partner): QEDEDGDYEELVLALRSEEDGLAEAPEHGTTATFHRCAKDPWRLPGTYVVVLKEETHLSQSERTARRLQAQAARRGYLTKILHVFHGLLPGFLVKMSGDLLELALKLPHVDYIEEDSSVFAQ
T1 sequence (Q8NBP7 153-692): as the sequence (Q8NBP7 153-692) above

Row | Compound | pIC50 [1] | pIC50 (PCSK9 [2]) | pIC50 (PCSK9 [3])
1 | COc1ccc(C[C@@H]2NC(=O)[C@H]([C@@H](C)OC)NC(=O)[C@H](CCC(=O)O)NC(=O)[C@H](Cc3c[nH]c4ccc(F)cc34)NC(=O)[C@H](Cc3cccc(CN)c3)NC(=O)[C@@H](C)NC(=O)[C@H](C)NC(=O)CCSCc3cccc(c3)CSCCNC(=O)[C@]3(C)CCCN3C2=O)cc1 [Compound 343] (cyclo(A[dA][Phe(3-CH2NH2)][Trp(5-F)]ET(Me)Y(Me)[αMeP][X4])) | 7.00 to 10.00 | 7.00 to 9.96 | 7.00 to 10.00
2 | C[C@H]1NC(=O)[C@H](CCCCN)NC(=O)CCSCc2cccc(c2)CSCCNC(=O)[C@]2(C)CCCN2C(=O)[C@H](Cc2ccc(O)cc2)N(C)C(=O)[C@H](Cc2c[nH]cn2)NC(=O)[C@H](CC(=O)O)NC(=O)[C@H](Cc2c[nH]c3ccc(F)cc23)NC(=O)[C@H](Cc2c[nH]c3ccc(F)cc23)NC1=O [Compound 277] (cyclo(DH[NMeY][αMeP][X4]K[dA][Trp(5-F)][Trp(5-F)])) | 7.00 to 10.00 | 7.00 to 9.96 | 6.30 to 7.00
3 | COc1ccc(C[C@@H]2NC(=O)[C@H](Cc3cnc[nH]3)NC(=O)[C@H](CC(=O)O)NC(=O)[C@H](Cc3c[nH]c4ccc(F)cc34)NC(=O)[C@H](Cc3c[nH]c4ccc(F)cc34)NC(=O)[C@@H](C)NC(=O)[C@H](CCCCN)NC(=O)[C@@H](NC(C)=O)CC(=O)NCCOc3ccc(cc3)C[C@@H](C(N)=O)NC(=O)[C@]3(C)CCCN3C2=O)cc1 [Compound 349] (Ac-DK[dA][Trp(5-F)][Trp(5-F)]DHY(Me)[αMeP][AEF]-NH2; lactam 1-10) | 7.00 to 10.00 | 7.00 to 9.96 | 6.30 to 7.00
4 | NCCCC[C@@H]1NC(=O)CCCn2cc(nn2)CCC[C@@H](C(N)=O)NC(=O)[C@@H]2CCCN2C(=O)[C@H](Cc2ccc(O)cc2)NC(=O)[C@H](Cc2c[nH]cn2)NC(=O)[C@H](CC(=O)O)NC(=O)[C@H](Cc2c[nH]c3ccc(F)cc23)NC(=O)[C@H](Cc2c[nH]c3ccc(F)cc23)NC(=O)CNC1=O [Compound 152] | 7.00 to 10.00 | 6.00 to 7.00 | 5.30 to 6.30
5 | C[C@@]12CCCN1C(=O)[C@H](Cc1ccc(O)cc1)NC(=O)[C@H](Cc1cnc[nH]1)NC(=O)[C@H](CC(=O)O)NC(=O)[C@H](Cc1c[nH]c3ccc(F)cc13)NC(=O)[C@H](Cc1c[nH]c3ccc(F)cc13)NC(=O)CNC(=O)[C@H](CCO)NC(=O)CCSCc1cccc(c1)CSC[C@@H](C(N)=O)NC2=O [Compound 376] ([Mpa][hSer]G[Trp(5-F)][Trp(5-F)]DHY[αMeP]C-NH2; linker 1-10 via mXylylene) | 7.00 to 10.00 | 7.00 to 9.96 | 6.30 to 7.00
6 | C[C@@]12CCCN1C(=O)[C@H](Cc1ccc(O)cc1)NC(=O)[C@H](Cc1c[nH]cn1)NC(=O)[C@H](CC(=O)O)NC(=O)[C@H](Cc1c[nH]c3ccc(F)cc13)NC(=O)[C@H](Cc1c[nH]c3ccc(F)cc13)NC(=O)CNC(=O)[C@H](CCCCN)NC(=O)CCSCc1cc(Cl)cc(c1)CSC[C@@H](C(N)=O)NC2=O [Compound 358] ([Mpa]KG[Trp(5-F)][Trp(5-F)]DHY[αMeP]C-NH2; linker 1-10 via X8) | 7.00 to 10.00 | 7.00 to 9.96 | 6.30 to 7.00
7 | CC(C)C[C@@H]1NC(=O)[C@@H]2CCCN2C(=O)[C@H](Cc2c[nH]c3ccc(F)cc23)NC(=O)[C@H](Cc2c[nH]c3ccc(F)cc23)NC(=O)CNC(=O)[C@H](CCCCN)NC(=O)CCSCc2cccc(c2)CSC[C@@H](C(N)=O)NC(=O)[C@]2(C)CCCN2C(=O)[C@H](Cc2ccc(O)cc2)NC1=O [Compound 004] ([Mpa]KG[Trp(5-F)][Trp(5-F)]PLY[αMeP]C-NH2; linker 1-10 via mXylylene) | 7.00 to 10.00 | 7.00 to 9.96 | 6.30 to 7.00
8 | COc1ccc(C[C@@H]2NC(=O)[C@H](Cc3cnc[nH]3)NC(=O)[C@H](CC(=O)O)NC(=O)[C@H](Cc3c[nH]c4ccc(F)cc34)NC(=O)[C@H](Cc3c[nH]c4ccc(F)cc34)NC(=O)[C@@H](C)NC(=O)[C@H](NC(C)=O)CCCCNC(=O)Cc3cccc(c3)CNC(=O)CC[C@@H](C(=O)O)NC(=O)[C@]3(C)CCCN3C2=O)cc1 [Compound 396] (Ac-[dK][dA][Trp(5-F)][Trp(5-F)]DHY(Me)[αMeP][γGlu][NHCH2(1,3-C6H4)CH2CO]; lactam 1-C) | 7.00 to 10.00 | 7.00 to 9.96 | 6.30 to 7.00
9 | CC(=O)N[C@H]1CCCCNC(=O)COc2ccc(cc2)C[C@@H](C(N)=O)NC(=O)[C@]2(C)CCCN2C(=O)[C@H](Cc2ccc(O)cc2)NC(=O)[C@H](Cc2cnc[nH]2)NC(=O)[C@H](CC(=O)O)NC(=O)[C@H](Cc2c[nH]c3ccc(F)cc23)NC(=O)[C@H](Cc2c[nH]c3ccc(F)cc23)NC(=O)CNC1=O [Compound 365] (Ac-KG[Trp(5-F)][Trp(5-F)]DHY[αMeP]Y-NH2; linker 1-9 via X2) | 7.00 to 10.00 | 7.00 to 9.96 | 7.00 to 10.00
